Experimental data reported in publication PMC7961380, “A Systematic Study of the In Vitro Pharmacokinetics and Estimated Human In Vivo Clearance of Indole and Indazole-3-Carboxamide Synthetic Cannabinoid Receptor Agonists Detected on the Illicit Drug Market” (Molecules, 2021).

Assays:
[1] = system: pooled human cryopreserved hepatocytes (pHHeps); experiment: Metabolic stability, pooled human cryopreserved hepatocyte incubations; settings: for % parent compound remaining, Average / Intrinsic clearance, CLint: pHHeps; for T1/2: pHHeps 0.25 million cells mL^−1, 0.5 µM, 37 °C, n ≥ 3 ± SD
[2] = Metabolic stability, pooled human liver microsome incubations; settings: for % parent compound remaining, Average / Microsomal Intrinsic Clearance, CLint micr / Intrinsic clearance, CLint: pHLM; for Microsomal Intrinsic Clearance, CLint micr / T1/2: n ≥ 3 ± SD; for T1/2: pHLM 0.5 mg mL^−1, 0.5 µM, NADPH, 37 °C
Experimental: Total incubation volume was 500 µL. Procedure: Test compound working solutions (50 µM in potassium phosphate buffer (pH 7.4)) were prepared (<1% DMSO). pHLM were thawed and diluted in potassium phosphate buffer (pH 7.4). […] Reactions were quenched in 200 µL ACN spiked with donepezil (IS, 50 ng mL^−1). […] Samples were analysed by UPLC-MS/MS in a 96 deep-well 2 mL plate. Each SCRA was incubated at least in triplicate but additional incubations were carried out across a number of analytical batches, giving greater replication and a greater understanding of system variability. Microsomal scaling factors used for human liver microsome incubations in the literature vary. Intrinsic clearance and predicted in vivo clearance rates calculated using alternative scaling factors found in the literature is provided in Section S6 of the supplementary information, to aid comparison of data between publications.
Equations used for in vitro intrinsic clearance calculation and human in vivo clearance […]
The equations used for in vitro intrinsic clearance calculation and human in vivo clearance estimation […]
Microsomal clearance (HLM incubations) in mL min-1 mg microsomal protein-1 [3]
Intrinsic clearance (whole-liver dimensions) (HLM incubations) in mL min-1 kg-1 [3] CL = k x V x [Liver](g) x SF Eqn. 7 […]
mg g microsomal protein-1 [7]
Intrinsic clearance (whole-liver dimensions) (HHep incubations) in mL min-1 kg-1 [4] CL = k x V x hepatocytes/g liver x [Liver](g) Eqn. 8 […]
Where: hepatocytes/g liver = 107x10^6 cells/g liver
Hepatic clearance in mL min-1 kg-1 [3]
[…] Eqn. 9
Where: Q = hepatic blood flow, 21 mL min-1 kg-1 [9]; fu = fraction unbound (plasma); CLint = […]
Estimated human hepatic extraction ratio [5]
Intrinsic clearance data – pooled human liver microsome incubations […]
table S4-28. Intrinsic clearance and predicted in vivo data calculated using alternative microsomal scaling factors found in the literature – 32 [10] and 45 [11] mg microsomal protein per gram liver – are provided in tables S29 and S30, respectively.

[3] = alternative hepatocyte cell density 99x10^6 hepatocytes per gram liver
[4] = alternative microsomal scaling factor 45 mg microsomal protein per gram liver

Row | Structure (SMILES) | % parent compound remaining, Average ([1]; 3 min) | % parent compound remaining, Average ([1]; 6 min) | % parent compound remaining, Average ([1]; 9 min) | % parent compound remaining, Average ([1]; 15 min) | % parent compound remaining, Average ([1]; 30 min) | % parent compound remaining, Average ([1]; 45 min) | % parent compound remaining, Average ([1]; 60 min) | % parent compound remaining, Average ([2]; 3 min) | % parent compound remaining, Average ([2]; 6 min) | % parent compound remaining, Average ([2]; 9 min) | % parent compound remaining, Average ([2]; 15 min) | % parent compound remaining, Average ([2]; 30 min) | Microsomal Intrinsic Clearance, CLint micr [2] | other results
1 | COC(=O)C(NC(=O)c1nn(CCCCCF)c2ccccc12)C(C)C (stereo in doubt) [(R)-5F-AMB-PINACA (10), methyl [1-(5-fluoropentyl)-1H-indazole-3-carbonyl]valinate] | 69.9% | 35.6% | 28.2% | 12.1% | 3.1% | 0.9% | 0.2% | 64.1% | 51.0% | 38.0% | 21.7% | 6.8% | 0.213 ± 0.014 mL min^−1 mg Microsomal Protein^−1 | –
2 | COC(=O)C(NC(=O)c1cn(CC2CCCCC2)c2ccccc12)C(C)C (stereo in doubt) [(R)-AMB-CHMICA (9), methyl [1-(cyclohexylmethyl)-1H-indole-3-carbonyl]valinate] | 62.7% | 61.2% | 45.1% | 26.7% | 11.8% | 5.9% | 3.2% | 73.0% | 53.6% | 47.4% | 30.4% | 11.3% | 0.167 ± 0.019 mL min^−1 mg Microsomal Protein^−1 | –
3 | COC(=O)C(NC(=O)c1nn(Cc2ccc(F)cc2)c2ccccc12)C(C)C (stereo in doubt) [(R)-AMB-FUBINACA (1), methyl [1-(4-fluorobenzyl)-1H-indazole-3-carbonyl]valinate] | 41.1% | 22.5% | 21.4% | 12.3% | 2.7% | 0.9% | 0.8% | 57.2% | 46.7% | 34.5% | 20.5% | 6.8% | 0.237 ± 0.020 mL min^−1 mg Microsomal Protein^−1 | –
4 | CCOc1ccc2ccc(=O)oc2c1 [7-ethoxycoumarin, reference compound] | 91.4% | 89.4% | 80.0% | 73.7% | 54.9% | 40.7% | 29.0% | – | – | – | – | – | – | Intrinsic clearance, CLint ([1]; scaled to whole liver, 107x10^6 cells/g liver): 55 to 305 mL/min/kg
5 | O=c1ccc2ccc(O)cc2o1 [7-hydroxycoumarin, reference compound] | 98.6% | 97.5% | 95.7% | 90.8% | 75.8% | 67.2% | 55.8% | – | – | – | – | – | – | intrinsic clearance rate ([1]; pHHeps positive control, range over batches): 46 to 238 min⁻¹ kg⁻¹
6 | CC(C)[C@@H](NC(=O)c1nn(Cc2ccc(F)cc2)c2ccccc12)C(N)=O [(R)-AB-FUBINACA (8), N-(1-amino-3-methyl-1-oxobutan-2-yl)-1-(4-fluorobenzyl)-1H-indazole-3-carboxamide] | 96.7% | 86.5% | 84.9% | 84.4% | 75.2% | 82.9% | 78.8% | 89.5% | 90.5% | 88.4% | 82.9% | 83.9% | 0.010 ± 0.003 mL min^−1 mg Microsomal Protein^−1 | T1/2 [1]: 69 ± 11 min; Intrinsic clearance, CLint [1, 3]: 105 ± 14.6 mL/min/kg; T1/2 [2]: 145 ± 45 min; Intrinsic clearance, CLint [2, 4]: 11.8 mL/min/kg
7 | CC(C)[C@@H](NC(=O)c1nn(CC2CCCCC2)c2ccccc12)C(N)=O [(R)-AB-[…] (11)] [N-[1-amino-3-methyl-1-oxobutan-2-yl]-1-(cyclohexylmethyl)-1H-indazole-3-carboxamide] | – | – | – | – | – | – | – | – | – | – | – | – | 0.033 ± 0.004 mL min^−1 mg Microsomal Protein^−1 | T1/2 [1]: 38 ± 8.7 min; % parent compound remaining, Average ([1]; 3 min, […]): 91.3%; % parent compound remaining, Average ([1]; 6 min, […]): 89.8%; % parent compound remaining, Average ([1]; 9 min, […]): 88.6%; % parent compound remaining, Average ([1]; 15 min, […]): 86.6%; % parent compound remaining, Average ([1]; 30 min, […]): 73.0%; % parent compound remaining, Average ([1]; 45 min, […]): 75.2%; % parent compound remaining, Average ([1]; 60 min, […]): 76.2%; Intrinsic clearance, CLint [1, 3]: 197 ± 50.3 mL/min/kg; T1/2 [2]: 43 ± 5.0 min; % parent compound remaining, Average ([2]; 3 min, […]): 84.0%; % parent compound remaining, Average ([2]; 6 min, […]): 84.4%; % parent compound remaining, Average ([2]; 9 min, […]): 82.1%; % parent compound remaining, Average ([2]; 15 min, […]): 73.6%; % parent compound remaining, Average ([2]; 30 min, […]): 59.0%; Intrinsic clearance, CLint ([2]; alternative microsomal scaling factor 32 mg microsomal protein per gram liver): 26.9 mL/min/kg; Intrinsic clearance, CLint [2, 4]: 37.8 ± 4.19 mL/min/kg
